Results from patent US7723021B2, “Methods for treating lentivirus infections” (The J. David Gladstone Institutes, priority 2003, dated 2010).
Entries after “also recorded” stand apart in the source; their conditions may differ. Residues, ends and D or L forms follow the SMILES beside them. *: point of attachment. Cbz = O=C(OCc1ccccc1)*

System: Vif-induced degradation of polyubiquitylated APOBEC3G
Experiment: 293T cells cotransfected with APOBEC3G-HA, His-ubiquitin and Vif, with MG132, anti-HA immunoblot
Type: cell-based
Details: MG132 for the final 6 hours of culture
Experimental: To obtain further insight into the mechanism of Vif-induced degradation of APOBEC3G, it was investigated whether APOBEC3G is modified by ubiquitylation. APOBEC3G and His-ubiquitin expression vectors (Treier et al., 1994) were cotransfected into 293T cells in the presence or absence of Vif expression vector. After 48 hours in culture, cellular lysates were prepared. […] Immunoblotting of lysates prepared in the absence of APOBEC3G-HA confirmed that anti-HA antibodies selectively reacted with modified forms of APOBEC3G (FIG. 7C, lane 10). Coexpression of Vif was associated with a complete loss of these polyubiquitylated APOBEC3G species as well as diminished expression of unmodified APOBEC3G (FIG. 7C, lanes 6 and 8). To investigate whether the 26S proteasome mediated Vif-induced degradation of these polyubiquitylated APOBEC3G protein species, parallel experiments were performed in the presence of the proteasome inhibitor, MG132. […] However, it was also observed in multiple experiments that one of the many APOBEC3G degradation products appearing in Vif-expressing cells increased after the addition of MG132 (FIG. 7C, compare lanes 7 and 8). These findings raise the possibility that Vif action may involve multiple pathways including the targeting of select proteolytic fragments of APOBEC3G for degradation by the 26S proteasome.
FIG. 7. HIV-1 Vif induces degradation of APOBEC3G, and polyubiquitylated forms of APOBEC3G form a major target for Vif induced degradation. (A and B) Vif promotes degradation or extensive proteolysis of APOBEC3G as reflected by the loss of both N- and C-terminal immunoreactive epitopes. Graded amounts of expression vector DNA encoding HA-APOBEC3G or APOBEC3G-HA were co-transfected with and without Vif expression vector DNA into 293T cells. Cellular lysates prepared from these cultures were analyzed by immunoblotting with anti-HA antibodies. […] Note that Vif expression induces a loss of anti-HA immunoreactivity regardless of whether the HA epitope is positioned at the N- or C-terminus of APOBEC3G. (C) APOBEC3G is polyubiquitylated and Vif induces degradation of (Ub)n-APOBEC3G apparently by a proteasome-independent mechanism. 293T cells were cotransfected with APOBEC3G-HA and his-ubiquitin expression vectors in the presence or absence of Vif expression vector. 48 hours later, cellular lysates were prepared. As indicated, select cultures were supplemented with the proteasome inhibitor, MG132, for the final 6 hours of culture. Lysates were analyzed by immunoblotting with anti-HA antibodies. […] In addition to the polyubiquitylated forms of APOBEC3G-HA, degradation products of APOBEC3G-HA were apparent both in the presence and absence of Vif expression.

Question: Which results are given for `CC(C)C[C@@H](C=O)NC(=O)[C@H](CC(C)C)NC(=O)[C@H](CC(C)C)NC(=O)OCc1ccccc1` [MG132] (Cbz-Leu-Leu-Leu-aldehyde)?
Answer: Vif-dependent disappearance of polyubiquitylated APOBEC3G: did not block; also recorded: not blocked; accumulation of polyubiquitylated proteins within the cells: increased accumulation; levels of unmodified APOBEC3G in the presence of Vif: did not block the Vif-dependent disappearance of polyubiquitylated APOBEC3G or increase levels of the unmodified protein; one of the APOBEC3G degradation products in Vif-expressing cells: increased in quantity
